Results from PubChem BioAssay (NCI).
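Assay format: 96-well plates, 48-hour exposure. GI50 = concentration required for 50% inhibition of growth. The concentration for full growth arrest is given as TGI.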

Columns and labels:
Assay in all cases: NCI anticancer screen, dose series, 48 h
M14 melanoma = test system: M14 melanoma
SK-MEL-2 melanoma = test system: SK-MEL-2 melanoma
786-0 renal = test system: 786-0 renal
DU-145 prostate = test system: DU-145 prostate
MDA-MB-231 breast = test system: MDA-MB-231 breast
HOP-62 NSCLC = test system: HOP-62 NSCLC
UO-31 renal = test system: UO-31 renal
LOX IMVI melanoma = test system: LOX IMVI melanoma
SNB-75 CNS = test system: SNB-75 CNS
HCT-15 colon = test system: HCT-15 colon
A549 NSCLC = test system: A549 NSCLC
U251 CNS = test system: U251 CNS
NCI/ADR-RES ovarian = test system: NCI/ADR-RES ovarian
MDA-MB-435 = test system: MDA-MB-435
EKVX NSCLC = test system: EKVX NSCLC
OVCAR-4 ovarian = test system: OVCAR-4 ovarian
SNB-19 CNS = test system: SNB-19 CNS
OVCAR-8 ovarian = test system: OVCAR-8 ovarian
KM12 colon = test system: KM12 colon
HL-60(TB) leukemia = test system: HL-60(TB) leukemia
SK-MEL-5 melanoma = test system: SK-MEL-5 melanoma
OVCAR-5 ovarian = test system: OVCAR-5 ovarian
SW-620 colon = test system: SW-620 colon
ACHN renal = test system: ACHN renal
SK-MEL-28 melanoma = test system: SK-MEL-28 melanoma
K-562 leukemia = test system: K-562 leukemia
COLO 205 colon = test system: COLO 205 colon
SF-295 CNS = test system: SF-295 CNS
UACC-62 melanoma = test system: UACC-62 melanoma
CAKI-1 renal = test system: CAKI-1 renal
RXF 393 renal = test system: RXF 393 renal
IGROV1 ovarian = test system: IGROV1 ovarian
BT-549 breast = test system: BT-549 breast
SN12C renal = test system: SN12C renal
HS 578T breast = test system: HS 578T breast
OVCAR-3 ovarian = test system: OVCAR-3 ovarian
NCI-H522 lung = test system: NCI-H522 lung
HCC-2998 colon = test system: HCC-2998 colon
PC-3 prostate = test system: PC-3 prostate
NCI-H460 lung = test system: NCI-H460 lung
RPMI-8226 leukemia = test system: RPMI-8226 leukemia
HCT-116 colon = test system: HCT-116 colon
TK-10 renal = test system: TK-10 renal
SK-OV-3 ovarian = test system: SK-OV-3 ovarian
SF-268 CNS = test system: SF-268 CNS
HT29 colon = test system: HT29 colon
UACC-257 melanoma = test system: UACC-257 melanoma
MOLT-4 leukemia = test system: MOLT-4 leukemia
MCF7 breast = test system: MCF7 breast
HOP-92 NSCLC = test system: HOP-92 NSCLC
NCI-H23 lung = test system: NCI-H23 lung
SR leukemia = test system: SR leukemia
MALME-3M melanoma = test system: MALME-3M melanoma
NCI-H226 lung = test system: NCI-H226 lung
SF-539 CNS = test system: SF-539 CNS
CCRF-CEM leukemia = test system: CCRF-CEM leukemia
A498 renal = test system: A498 renal

With `COc1cc2c(c(OC)c1OC)-c1ncc3cc4c(cc3c1C2)OCO4` the GI50 (M14 melanoma) was 45.5 µM, the TGI (M14 melanoma) was over 100 µM and the GI50 (SK-MEL-2 melanoma) was 38.9 µM. For the same molecule, the TGI (SK-MEL-2 melanoma) was over 100 µM, the GI50 (786-0 renal) was 30.2 µM and the TGI (786-0 renal) was over 100 µM. It also gave a GI50 (DU-145 prostate) of 23.2 µM, a TGI (DU-145 prostate) of over 100 µM and a GI50 (MDA-MB-231 breast) of 13.8 µM. For the same molecule, the TGI (MDA-MB-231 breast) was 88.8 µM, the GI50 (HOP-62 NSCLC) was 21.7 µM and the TGI (HOP-62 NSCLC) was 46.6 µM. For the same molecule, the GI50 (UO-31 renal) was 12.5 µM, the TGI (UO-31 renal) was 74.6 µM and the GI50 (LOX IMVI melanoma) was 14.3 µM. It also gave a TGI (LOX IMVI melanoma) of 34.1 µM, a GI50 (SNB-75 CNS) of 79.4 µM and a TGI (SNB-75 CNS) of over 100 µM. The GI50 (HCT-15 colon) was 10.8 µM, the TGI (HCT-15 colon) was over 100 µM and the GI50 (A549 NSCLC) was 21.1 µM. The TGI (A549 NSCLC) was 97.9 µM, the GI50 (U251 CNS) was 21.6 µM and the TGI (U251 CNS) was 54.2 µM. It also gave a GI50 (NCI/ADR-RES ovarian) of 32.1 µM, a TGI (NCI/ADR-RES ovarian) of over 100 µM and a GI50 (MDA-MB-435) of 13.2 µM. The TGI (MDA-MB-435) was 32.6 µM, the GI50 (EKVX NSCLC) was 15.6 µM and the TGI (EKVX NSCLC) was 51.7 µM. For the same molecule, the GI50 (OVCAR-4 ovarian) was 46.3 µM, the TGI (OVCAR-4 ovarian) was over 100 µM and the GI50 (SNB-19 CNS) was over 100 µM. For the same molecule, the TGI (SNB-19 CNS) was over 100 µM, the GI50 (OVCAR-8 ovarian) was 13.9 µM and the TGI (OVCAR-8 ovarian) was 36.9 µM. For the same molecule, the GI50 (KM12 colon) was 18.6 µM, the TGI (KM12 colon) was 80.1 µM and the GI50 (HL-60(TB) leukemia) was 26.3 µM. It also gave a TGI (HL-60(TB) leukemia) of over 100 µM, a GI50 (SK-MEL-5 melanoma) of 17.4 µM and a TGI (SK-MEL-5 melanoma) of 36.5 µM. For the same molecule, the GI50 (OVCAR-5 ovarian) was over 100 µM, the TGI (OVCAR-5 ovarian) was over 100 µM and the GI50 (SW-620 colon) was 18.6 µM. For the same molecule, the TGI (SW-620 colon) was 60.5 µM, the GI50 (ACHN renal) was 28.8 µM and the TGI (ACHN renal) was 73.6 µM. For the same molecule, the GI50 (SK-MEL-28 melanoma) was 54.6 µM, the TGI (SK-MEL-28 melanoma) was over 100 µM and the GI50 (K-562 leukemia) was 2.27 µM. It also gave a TGI (K-562 leukemia) of over 100 µM, a GI50 (COLO 205 colon) of 29.7 µM and a TGI (COLO 205 colon) of over 100 µM. For the same molecule, the GI50 (SF-295 CNS) was 15.6 µM, the TGI (SF-295 CNS) was 39.8 µM and the GI50 (UACC-62 melanoma) was 19.3 µM. It also gave a TGI (UACC-62 melanoma) of over 100 µM, a GI50 (CAKI-1 renal) of 18 µM and a TGI (CAKI-1 renal) of 71.7 µM. The GI50 (RXF 393 renal) was 24.2 µM, the TGI (RXF 393 renal) was 83.8 µM and the GI50 (IGROV1 ovarian) was 12.8 µM. It also gave a TGI (IGROV1 ovarian) of over 100 µM, a GI50 (BT-549 breast) of 3.76 µM and a TGI (BT-549 breast) of 20.1 µM. The GI50 (SN12C renal) was 13.4 µM, the TGI (SN12C renal) was 40.8 µM and the GI50 (HS 578T breast) was 14.7 µM. For the same molecule, the TGI (HS 578T breast) was 49.6 µM, the GI50 (OVCAR-3 ovarian) was 15.5 µM and the TGI (OVCAR-3 ovarian) was 38.1 µM. The GI50 (NCI-H522 lung) was 18.9 µM, the TGI (NCI-H522 lung) was 45.9 µM and the GI50 (HCC-2998 colon) was 17.4 µM. For the same molecule, the TGI (HCC-2998 colon) was 48.1 µM, the GI50 (PC-3 prostate) was 34.7 µM and the TGI (PC-3 prostate) was over 100 µM. It also gave a GI50 (NCI-H460 lung) of 15.5 µM, a TGI (NCI-H460 lung) of 38.2 µM and a GI50 (RPMI-8226 leukemia) of 17.8 µM. The TGI (RPMI-8226 leukemia) was over 100 µM, the GI50 (HCT-116 colon) was 18.8 µM and the TGI (HCT-116 colon) was 48.3 µM. It also gave a GI50 (TK-10 renal) of 26.2 µM, a TGI (TK-10 renal) of 67.3 µM and a GI50 (SK-OV-3 ovarian) of 21.9 µM. For the same molecule, the TGI (SK-OV-3 ovarian) was 46.5 µM.
In the case of `COc1ccc(-n2cnn3c(=O)c4cn[nH]c4nc23)cc1`, the TGI (SF-268 CNS) is reported as over 10 µM, the TGI (M14 melanoma) is reported as over 10 µM and the TGI (786-0 renal) is reported as over 10 µM. It also gave a TGI (DU-145 prostate) of over 10 µM, a TGI (UO-31 renal) of over 10 µM and a TGI (HT29 colon) of over 10 µM. For the same molecule, the TGI (LOX IMVI melanoma) was over 10 µM, the TGI (SNB-75 CNS) was over 10 µM and the TGI (UACC-257 melanoma) was over 10 µM. For the same molecule, the TGI (A549 NSCLC) was over 10 µM, the TGI (U251 CNS) was over 10 µM and the TGI (MDA-MB-435) was over 10 µM. The TGI (MOLT-4 leukemia) was over 10 µM, the TGI (EKVX NSCLC) was over 10 µM and the TGI (OVCAR-4 ovarian) was over 10 µM. For the same molecule, the TGI (SNB-19 CNS) was over 10 µM, the TGI (MCF7 breast) was over 10 µM and the TGI (HOP-92 NSCLC) was over 10 µM. The TGI (NCI-H23 lung) was over 10 µM, the TGI (OVCAR-8 ovarian) was over 10 µM and the TGI (KM12 colon) was over 10 µM. The TGI (HL-60(TB) leukemia) was over 10 µM, the TGI (SK-MEL-5 melanoma) was over 10 µM and the TGI (OVCAR-5 ovarian) was over 10 µM. For the same molecule, the TGI (SR leukemia) was over 10 µM, the TGI (ACHN renal) was over 10 µM and the TGI (K-562 leukemia) was over 10 µM. The TGI (SF-295 CNS) was over 10 µM, the TGI (MALME-3M melanoma) was over 10 µM and the TGI (NCI-H226 lung) was over 10 µM. The TGI (SF-539 CNS) was over 10 µM, the TGI (BT-549 breast) was over 10 µM and the TGI (CCRF-CEM leukemia) was over 10 µM. For the same molecule, the TGI (SN12C renal) was over 10 µM, the TGI (HS 578T breast) was over 10 µM and the TGI (OVCAR-3 ovarian) was over 10 µM. The TGI (NCI-H522 lung) was over 10 µM, the TGI (HCC-2998 colon) was over 10 µM and the TGI (PC-3 prostate) was over 10 µM. The TGI (NCI-H460 lung) was over 10 µM, the TGI (HCT-116 colon) was over 10 µM and the TGI (TK-10 renal) was over 10 µM. For the same molecule, the TGI (SK-OV-3 ovarian) was over 10 µM.
In the case of `C[C@H]1[C@H](C)CC[C@]2(C(=O)Nc3ccc4ncccc4c3)CC[C@]3(C)C(=CC[C@@H]4[C@@]5(C)CCCNC(C)(C)[C@@H]5CC[C@]43C)[C@H]12`, the GI50 (M14 melanoma) is reported as 1.94 µM, the TGI (M14 melanoma) is reported as 3.59 µM and the GI50 (SK-MEL-2 melanoma) is reported as 1.84 µM. The TGI (SK-MEL-2 melanoma) was 3.43 µM, the GI50 (SK-MEL-5 melanoma) was 1.85 µM and the TGI (SK-MEL-5 melanoma) was 3.32 µM. For the same molecule, the GI50 (A498 renal) was 1.56 µM, the TGI (A498 renal) was 2.96 µM and the GI50 (SW-620 colon) was 1.8 µM. The TGI (SW-620 colon) was 3.37 µM, the GI50 (UACC-62 melanoma) was 1.74 µM and the TGI (UACC-62 melanoma) was 3.23 µM. It also gave a GI50 (IGROV1 ovarian) of 1.7 µM, a TGI (IGROV1 ovarian) of 3.37 µM and a GI50 (NCI-H460 lung) of 1.94 µM. For the same molecule, the TGI (NCI-H460 lung) was 3.82 µM, the GI50 (HCT-116 colon) was 1.6 µM and the TGI (HCT-116 colon) was 3.11 µM.
